# Laboratory results taken from patent publication US20260372305A1, “A METHOD FOR CONTROLLING WEEDS” (SYNGENTA CROP PROTECTION AG, priority 2022, published 2026).
# Key:
# Type in all cases: in vivo
# [1] = test system: Amaranthus palmeri, homozygous for glycine at amino acid 98 in PPX2L ('98GG', R98G); assay: Postemergence control of Amaranthus palmeri with R98G mutation in PPX2L (Example 1); conditions: for % Survival out of 14 repetitions: R98G, postemergence, 14 days after application, Adigor 0.5% by volume
# From the text: (§1) The commercial standard PPO inhibitor fomesafen and compound 1 of the present application were applied to two Amaranthus palmeri populations in order to determine the impact of mutations at amino acid 98 in PPX2L from the wild-type arginine to a glycine.
# (§2) The two A. palmeri populations used were as follows: a known PPO inhibitor sensitive population (‘Sensitive’), a population of which each individual was known to be homozygous for a glycine at amino acid 98 in the protoporphyrinogen oxidase gene PPX2L (‘98GG’).
# (§3) Seeds were sown in seed trays containing ericaceous compost and covered with vermiculite. When approximately 1 inch in height plants were transplanted 1 per pot into 3-inch diameter pots containing ericaceous compost. The pots were watered and maintained in a glasshouse providing a 16 H photoperiod of 180 μmol m^−2 s^−1 with 24 °C daytime temperatures and 18 °C night-time temperatures and 65% relative humidity until 3 inches tall at which point the herbicides were applied at the use rates specified in Table 1 below to 14 individual plants per rate of each of the biotypes.
# (§4) All treatments were applied as dilutions in reverse osmosis water and with the commercial adjuvant Adigor® at 0.5% by volume. Prior to dilution with water compound 8 was initially dissolved to a 5% solution in a solvent mixture comprising 11.12% Emulsogen EL 360, 44.44% Dowanol DPM and 44.44% N-methyl pyrrolidone. Herbicide applications were carried out in a track sprayer with a flat fan nozzle applying the herbicide treatments at a rate of 200 L/ha^−1.
# (§5) After treatment, the plants were watered and maintained in a glasshouse providing a 16 H photoperiod of 180 μmol m^−2 s^−1 with 24 °C daytime temperatures and 18 °C night-time temperatures and 65% relative humidity until 14 days after application at which point they were assessed on a ‘dead or alive’ basis. The plants still alive at this point were classed as surviving the herbicide application and the averaged results of this assessment are presented in Table 1.
# [2] = test system: Amaranthus palmeri, PPO inhibitor sensitive population ('Sensitive'); assay: Postemergence control of PPO inhibitor sensitive Amaranthus palmeri (Example 1); conditions: for use rate achieving complete control (no surviving plants) of the 'sensitive' population / % Survival out of 14 repetitions: postemergence, 14 days after application; for % Survival out of 14 repetitions: Sensitive, Adigor 0.5% by volume
# From the text: as §1, §2, §3, §4, §5
# [3] = test system: Amaranthus tuberculatus, Sensitive; assay: Postemergence control of sensitive population (Example 2); conditions: Agridex 1% by volume
SMILES,% Survival out of 14 repetitions ([1]; 1 g ai/ha^−1),% Survival out of 14 repetitions ([1]; 2 g ai/ha^−1),% Survival out of 14 repetitions ([1]; 4 g ai/ha^−1),% Survival out of 14 repetitions ([1]; 8 g ai/ha^−1),% Survival out of 14 repetitions ([1]; 16 g ai/ha^−1),% Survival out of 14 repetitions ([1]; 32 g ai/ha^−1),% Survival out of 14 repetitions ([1]; 64 g ai/ha^−1),use rate achieving complete control (no surviving plants) of the 'sensitive' population ([2]; 'sensitive' population),% Survival out of 14 repetitions ([2]; 1 g ai/ha^−1),% Survival out of 14 repetitions ([2]; 2 g ai/ha^−1),% Survival out of 14 repetitions ([2]; 4 g ai/ha^−1),% Survival out of 14 repetitions ([2]; 8 g ai/ha^−1),% Survival out of 14 repetitions ([2]; 16 g ai/ha^−1),% Survival out of 14 repetitions ([2]; 32 g ai/ha^−1),% Survival out of 14 repetitions ([2]; 64 g ai/ha^−1),other results
"CCOC(=O)[C@]1(C)CC(c2cc(-n3c(=O)n(C)c(=S)n(C)c3=O)c(F)cc2Cl)=NO1 [compound 1, ethyl (5S)-3-[2-chloro-5-(3,5-dimethyl-2,6-dioxo-4-thioxo-1,3,5-triazinan-1-yl)-4-fluoro-phenyl]-5-methyl-4H-isoxazole-5-carboxylate]",100%,100%,100%,100%,79%,79%,21%,≥ 16 g ai/ha^−1,100%,86%,43%,7%,0%,0%,0%,"control of '98GG' ([1]; '98GG', 16 g ai/ha^−1 rate, compared with fomesafen): better control of ‘98GG’; % Survival out of 14 repetitions ([1]; 0.5 g ai/ha^−1): 100%; ability for controlling the 'sensitive' population compared with fomesafen ([2]; 'sensitive' population, compared with fomesafen): improved ability compared with fomesafen for controlling the ‘sensitive’ population; % Survival out of 14 repetitions ([2]; 0.5 g ai/ha^−1): 100%; % Survival out of 14 repetitions ([3]; 0.5 g ai/ha^−1, 14 days after application): 100%; % Survival out of 14 repetitions ([3]; 1 g ai/ha^−1, 14 days after application): 100%; % Survival out of 14 repetitions ([3]; 2 g ai/ha^−1, 14 days after application): 86%; % Survival out of 14 repetitions ([3]; 4 g ai/ha^−1, 14 days after application): 43%; % Survival out of 14 repetitions ([3]; 8 g ai/ha^−1, 14 days after application): 14%; % Survival out of 14 repetitions ([3]; 16 g ai/ha^−1, 14 days after application): 0%; % Survival out of 14 repetitions ([3]; 32 g ai/ha^−1, 14 days after application): 0%; % Survival out of 14 repetitions ([3]; 64 g ai/ha^−1, 14 days after application): 0%"
"CS(=O)(=O)NC(=O)c1cc(Oc2ccc(C(F)(F)F)cc2Cl)ccc1[N+](=O)[O-] [fomesafen, reference compound]",100%,100%,100%,100%,100%,93%,93%,≥ 64 g ai/ha^−1,100%,100%,86%,71%,14%,7%,0%,% Survival out of 14 repetitions ([1]; 128 g ai/ha^−1): 93%; % Survival out of 14 repetitions ([2]; 128 g ai/ha^−1): 0%
